Measurements: ChEMBL document CHEMBL5537159, “Discovery and SAR of JTE-151: A Novel RORγ Inhibitor for Clinical Development” (J Med Chem, 2024)
Active and inactive are the calls of the source. The rule behind the calls is not given here.

How the values were obtained:
[1] = Elimination half life in human at 600 mg/kg, po administered as single dose and measured upto 144 hrs; type: ADME, organism-based; details: in vivo, read-out: beta t1/2 (converted)
[2] = target: 5-hydroxytryptamine receptor 3A (Homo sapiens, UniProt P46098); experiment: Inhibition of human 5-HT3 receptor
Mus musculus = experiment: Anti-inflammatory activity in complete Freund's adjuvant/MOG (35 to 55 residues)/pertussis toxin-induced experimental autoimmune encephalomyelitis C57BL/6 mouse model assessed as reduction in paralysis by measuring reduction in EAE clinical score at 3 to 10 mg/kg, po administered once daily for 17 days and measured on day 18; type: functional, organism-based; details: dose 3-10 mg/kg, time 18.0 day
[3] = target: Amine oxidase [flavin-containing] B (Homo sapiens, UniProt P27338); experiment: Inhibition of human MAO-B
[4] = target: 5-hydroxytryptamine receptor 2A (Homo sapiens, UniProt P28223); experiment: Inhibition of human 5-HT2A receptor
Cytochrome P450 3A5 [5] = target: T1, Cytochrome P450 3A5 (Homo sapiens, UniProt P20815); experiment: Inhibition of CYP3A5 in human liver microsomes using testosterone as substrate; type: ADME, Microsome
Histamine H1 receptor = Histamine H1 receptor (Homo sapiens, UniProt P35367); experiment: Inhibition of human histamine H1 receptor
[6] = Tmax in human at 400 […], po administered as single dose and measured upto 144 hrs; type: ADME, organism-based; details: in vivo
[7] = Genotoxicity in Salmonella typhimurium TA100 at 23 to 750 ug in presence of S9 fraction by bacterial reverse mutation test; type: toxicity, subcellular, Salmonella enterica subsp. enterica serovar Typhimurium; details: dose 23-750 µg
[8] = Inhibition of human nicotinic receptor
[9] = target: Prostaglandin G/H synthase 1 (Ovis aries, UniProt P05979); experiment: Inhibition of ovine cox-1
[10] = Volume of distribution at steady state in Beagle dog at 1 mg/kg, iv administered as single dose and measured after 24 hrs; type: ADME, organism-based, Canis lupus familiaris; details: in vivo, read-out: Vdss
[11] = Selectivity ratio of antagonist activity at human RORbeta to inhibition of RORgamma (unknown origin)
[12] = Tmax in human at 60 […], po administered as single dose and measured upto 144 hrs; type: ADME, organism-based; details: in vivo
Cytochrome P450 2A6 = Cytochrome P450 2A6 (Homo sapiens, UniProt P11509); experiment: Inhibition of CYP2A6 in human liver microsomes; type: ADME, Microsome
[13] = Cmax in human at 1000 […], po administered as single dose and measured upto 144 hrs; type: ADME, organism-based; details: in vivo
Cytochrome P450 3A4 [14] = target: T2, Cytochrome P450 3A4 (Homo sapiens, UniProt P08684); experiment: Inhibition of CYP3A4 in human liver microsomes using midazolam as substrate; type: ADME, Microsome
[15] = Volume of distribution at steady state in CD(SD) rat at 1 mg/kg, iv administered as single dose and measured after 24 hrs; type: ADME, organism-based; details: in vivo, read-out: Vdss
[16] = Genotoxicity in Salmonella typhimurium TA98 at 23 to 750 ug in absence of S9 fraction by bacterial reverse mutation test; type: toxicity, Salmonella enterica subsp. enterica serovar Typhimurium; details: in vivo; dose 23-750 µg
[17] = Inhibition of rat nitric oxide synthase
[18] = Cmax in human at 400 […], po administered as single dose and measured upto 144 hrs; type: ADME, organism-based; details: in vivo
[19] = Tmax in human at 30 […], po administered as single dose and measured upto 144 hrs; type: ADME, organism-based; details: in vivo
[20] = Elimination half life in human at 30 mg/kg, po administered as single dose and measured upto 144 hrs; type: ADME, organism-based; details: in vivo, read-out: beta t1/2 (converted)
[21] = Lipophilicity, logD of compound by RP-HPLC analysis; type: physicochemical
Cytochrome P450 3A5 [22] = target: T1, Cytochrome P450 3A5; experiment: Inhibition of CYP3A5 in human liver microsomes using midazolam as substrate; type: ADME, Microsome
Histamine H3 receptor = Histamine H3 receptor (Homo sapiens, UniProt Q9Y5N1); experiment: Inhibition of human histamine H3 receptor
[23] = MRT in C57BL/6J mouse at 3 mg/kg, po administered as single dose and measured after 24 hrs; type: ADME, organism-based; details: in vivo
[24] = Toxicity in CHL cells assessed as chromosomal aberration at 120 to 140 ug/ml incubated for 6 hrs in presence of S9 fraction; type: subcellular, Cricetulus griseus; details: chinese hamster, s9, 6 h, dose 120-140 µg/ml
[25] = Volume of distribution at steady state in cynomolgus monkey at 1 mg/kg, iv administered as single dose and measured after 24 hrs; type: ADME, organism-based, Macaca fascicularis; details: in vivo, read-out: Vdss
Histamine H2 receptor = Histamine H2 receptor (Homo sapiens, UniProt P25021); experiment: Inhibition of human histamine H2 receptor
[26] = Selectivity ratio of antagonist activity at human PPARgamma to inhibition of RORgamma (unknown origin)
[27] = Selectivity ratio of agonist activity at human PPARalpha to inhibition of RORgamma (unknown origin)
[28] = Tmax in human at 200 […], po administered as single dose and measured upto 144 hrs; type: ADME, organism-based; details: in vivo
[29] = Selectivity ratio of antagonist activity at human PPARdelta to inhibition of RORgamma (unknown origin)
[30] = Apparent permeability in human Caco-2 cells at 25 umol/L incubated for 2 hrs by LC/MS/MS analysis; type: ADME, cell-based; details: dose 25 µmol/L
[31] = Elimination half life in CD(SD) rat at 1 mg/kg, iv administered as single dose and measured after 24 hrs; type: ADME, organism-based; details: in vivo, read-out: beta t1/2 (converted)
Cytochrome P450 3A4 [32] = target: T2, Cytochrome P450 3A4; experiment: Inhibition of CYP3A4 in human liver microsomes using testosterone as substrate; type: ADME, Microsome
[33] = Metabolic stability in human liver microsomes assessed as compound remaining at 5 umol/L measured after 60 mins by UPLC/MS analysis; type: ADME, Microsome; details: dose 5 µmol/L, read-out: Stability
[34] = AUClast in human at 400 mg/kg, po administered as single dose and measured upto 144 hrs; type: ADME, organism-based; details: in vivo
Cytochrome P450 2D6 = Cytochrome P450 2D6 (Homo sapiens, UniProt P10635); experiment: Inhibition of CYP2D6 in human liver microsomes; type: ADME, Microsome
[35] = MRT in Beagle dog at 3 mg/kg, po administered as single dose and measured after 24 hrs; type: ADME, organism-based, Canis lupus familiaris; details: in vivo
[36] = Selectivity ratio of agonist activity at human VDR to inhibition of RORgamma (unknown origin)
[37] = Oral bioavailability in C57BL/6J mouse at 3 mg/kg administered as single dose and measured after 24 hrs; type: ADME, organism-based; details: in vivo
[38] = Oral bioavailability in CD(SD) rat at 10 mg/kg administered as single dose and measured after 24 hrs; type: ADME, organism-based; details: in vivo
Acetylcholinesterase = Acetylcholinesterase (Electrophorus electricus, UniProt O42275); experiment: Inhibition of Electric eel AChE
[39] = Elimination half life in human at 1000 mg/kg, po administered as single dose and measured upto 144 hrs; type: ADME, organism-based; details: in vivo, read-out: beta t1/2 (converted)
[40] = Cardiotoxicity in Beagle dog assessed as QTcF prolongation upto 100 mg/kg, po bid measured for 24 hrs; type: toxicity, organism-based, Canis lupus familiaris; details: in vivo
[41] = Genotoxicity in Salmonella typhimurium TA1535 at 188 to 5000 ug in presence of S9 fraction by bacterial reverse mutation test; type: toxicity, subcellular, Salmonella enterica subsp. enterica serovar Typhimurium; details: dose 188-5000 µg
[42] = target: Voltage-gated L-type calcium channel (Rattus norvegicus, UniProt P22002+Q02485+P27732); experiment: Inhibition of rat L-type Ca2+ channel; type: protein assay
[43] = Genotoxicity in Salmonella typhimurium TA1537 at 47 to 1500 ug in presence of S9 fraction by bacterial reverse mutation test; type: toxicity, subcellular, Salmonella enterica subsp. enterica serovar Typhimurium; details: dose 47-1500 µg

T1 sequence (P20815 whole entry): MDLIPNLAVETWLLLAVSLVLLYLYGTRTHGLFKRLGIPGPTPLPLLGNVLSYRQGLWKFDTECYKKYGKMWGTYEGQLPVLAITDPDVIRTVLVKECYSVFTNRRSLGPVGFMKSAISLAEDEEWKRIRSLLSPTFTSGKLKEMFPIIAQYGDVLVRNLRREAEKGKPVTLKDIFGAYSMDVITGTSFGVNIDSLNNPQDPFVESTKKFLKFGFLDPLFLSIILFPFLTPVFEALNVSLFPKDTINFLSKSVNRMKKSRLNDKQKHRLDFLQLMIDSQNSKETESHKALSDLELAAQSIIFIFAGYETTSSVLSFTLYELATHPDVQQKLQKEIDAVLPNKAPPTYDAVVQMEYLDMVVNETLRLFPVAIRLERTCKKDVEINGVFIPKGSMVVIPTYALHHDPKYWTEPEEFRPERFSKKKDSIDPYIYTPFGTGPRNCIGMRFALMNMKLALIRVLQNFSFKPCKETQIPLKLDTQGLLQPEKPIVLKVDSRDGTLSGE
T2 sequence (P08684 whole entry): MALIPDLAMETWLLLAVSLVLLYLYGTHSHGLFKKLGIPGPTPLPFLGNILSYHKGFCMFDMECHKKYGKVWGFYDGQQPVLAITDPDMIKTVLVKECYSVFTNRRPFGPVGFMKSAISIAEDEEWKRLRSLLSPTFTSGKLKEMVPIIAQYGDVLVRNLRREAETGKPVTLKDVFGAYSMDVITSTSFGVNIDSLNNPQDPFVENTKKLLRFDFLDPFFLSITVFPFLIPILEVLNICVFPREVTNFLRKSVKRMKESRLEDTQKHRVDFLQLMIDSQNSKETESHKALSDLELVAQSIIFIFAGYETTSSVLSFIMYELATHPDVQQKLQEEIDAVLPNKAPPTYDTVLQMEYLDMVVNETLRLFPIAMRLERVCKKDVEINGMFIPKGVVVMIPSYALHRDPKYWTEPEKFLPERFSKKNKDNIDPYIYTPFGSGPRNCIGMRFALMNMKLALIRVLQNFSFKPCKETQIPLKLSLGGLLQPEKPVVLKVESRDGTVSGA
Chain of Amine oxidase [flavin-containing] B (P27338 whole entry): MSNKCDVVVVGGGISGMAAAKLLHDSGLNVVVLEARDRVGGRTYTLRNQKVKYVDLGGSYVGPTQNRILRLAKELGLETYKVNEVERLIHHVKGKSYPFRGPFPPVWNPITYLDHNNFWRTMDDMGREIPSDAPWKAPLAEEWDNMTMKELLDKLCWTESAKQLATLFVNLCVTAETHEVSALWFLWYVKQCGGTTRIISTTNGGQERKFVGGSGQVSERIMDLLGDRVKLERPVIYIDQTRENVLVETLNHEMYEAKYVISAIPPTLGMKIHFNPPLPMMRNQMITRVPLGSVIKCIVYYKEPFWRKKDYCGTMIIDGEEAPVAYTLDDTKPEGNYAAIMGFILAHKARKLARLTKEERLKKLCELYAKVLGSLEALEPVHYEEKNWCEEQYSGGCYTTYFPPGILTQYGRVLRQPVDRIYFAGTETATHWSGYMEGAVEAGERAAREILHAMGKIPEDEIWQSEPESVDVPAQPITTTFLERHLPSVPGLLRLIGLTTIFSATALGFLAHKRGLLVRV
Chain of Histamine H1 receptor (P35367 whole entry): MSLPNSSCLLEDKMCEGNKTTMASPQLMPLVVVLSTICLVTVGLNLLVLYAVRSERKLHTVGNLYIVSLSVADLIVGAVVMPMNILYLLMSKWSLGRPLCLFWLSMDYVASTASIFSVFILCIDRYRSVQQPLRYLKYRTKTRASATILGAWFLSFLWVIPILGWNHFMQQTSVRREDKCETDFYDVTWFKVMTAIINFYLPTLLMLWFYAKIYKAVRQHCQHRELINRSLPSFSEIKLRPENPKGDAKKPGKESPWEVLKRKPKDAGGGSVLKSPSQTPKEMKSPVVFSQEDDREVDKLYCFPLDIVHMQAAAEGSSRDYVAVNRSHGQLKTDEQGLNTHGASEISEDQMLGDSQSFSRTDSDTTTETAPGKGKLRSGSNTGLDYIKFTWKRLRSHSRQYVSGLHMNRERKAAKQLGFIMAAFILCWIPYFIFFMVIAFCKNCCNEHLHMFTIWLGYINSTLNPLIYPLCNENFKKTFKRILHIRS
Chain of Histamine H2 receptor (P25021 whole entry): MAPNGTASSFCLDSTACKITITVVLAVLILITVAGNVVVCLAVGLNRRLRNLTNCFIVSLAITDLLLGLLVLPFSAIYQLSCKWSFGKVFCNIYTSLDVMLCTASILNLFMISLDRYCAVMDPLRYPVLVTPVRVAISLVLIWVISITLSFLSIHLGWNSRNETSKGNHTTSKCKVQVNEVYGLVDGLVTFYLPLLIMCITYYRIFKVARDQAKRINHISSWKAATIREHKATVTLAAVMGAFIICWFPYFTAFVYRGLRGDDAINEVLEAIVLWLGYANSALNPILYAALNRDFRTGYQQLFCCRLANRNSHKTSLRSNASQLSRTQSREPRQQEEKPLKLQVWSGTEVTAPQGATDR
Chain of 5-hydroxytryptamine receptor 2A (P28223 whole entry): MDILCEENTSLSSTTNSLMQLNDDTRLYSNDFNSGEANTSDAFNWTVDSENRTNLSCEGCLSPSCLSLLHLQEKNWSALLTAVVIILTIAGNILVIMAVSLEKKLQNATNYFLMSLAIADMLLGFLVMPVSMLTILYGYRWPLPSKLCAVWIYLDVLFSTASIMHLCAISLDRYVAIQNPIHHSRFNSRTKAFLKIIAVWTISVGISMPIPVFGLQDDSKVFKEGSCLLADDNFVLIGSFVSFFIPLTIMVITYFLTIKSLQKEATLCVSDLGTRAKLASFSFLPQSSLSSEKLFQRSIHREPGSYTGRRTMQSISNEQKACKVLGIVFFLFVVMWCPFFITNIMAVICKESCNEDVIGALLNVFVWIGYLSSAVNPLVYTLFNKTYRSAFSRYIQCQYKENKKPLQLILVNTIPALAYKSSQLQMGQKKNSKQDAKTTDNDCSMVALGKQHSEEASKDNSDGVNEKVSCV
Chain of Cytochrome P450 2A6 (P11509 whole entry): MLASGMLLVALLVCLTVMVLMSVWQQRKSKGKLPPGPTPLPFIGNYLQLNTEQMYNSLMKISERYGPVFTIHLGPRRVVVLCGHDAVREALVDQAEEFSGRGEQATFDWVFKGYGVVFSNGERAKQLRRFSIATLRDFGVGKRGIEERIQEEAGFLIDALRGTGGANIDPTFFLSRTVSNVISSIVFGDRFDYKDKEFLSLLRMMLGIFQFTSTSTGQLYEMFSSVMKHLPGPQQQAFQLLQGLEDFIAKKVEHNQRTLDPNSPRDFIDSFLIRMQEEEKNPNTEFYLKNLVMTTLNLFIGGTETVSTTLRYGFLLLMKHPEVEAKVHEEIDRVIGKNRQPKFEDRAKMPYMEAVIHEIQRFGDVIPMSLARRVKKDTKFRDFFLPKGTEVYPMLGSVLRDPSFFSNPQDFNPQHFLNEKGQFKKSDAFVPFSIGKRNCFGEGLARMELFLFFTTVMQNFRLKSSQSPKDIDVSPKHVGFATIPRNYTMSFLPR
Chain of Cytochrome P450 2D6 (P10635 whole entry): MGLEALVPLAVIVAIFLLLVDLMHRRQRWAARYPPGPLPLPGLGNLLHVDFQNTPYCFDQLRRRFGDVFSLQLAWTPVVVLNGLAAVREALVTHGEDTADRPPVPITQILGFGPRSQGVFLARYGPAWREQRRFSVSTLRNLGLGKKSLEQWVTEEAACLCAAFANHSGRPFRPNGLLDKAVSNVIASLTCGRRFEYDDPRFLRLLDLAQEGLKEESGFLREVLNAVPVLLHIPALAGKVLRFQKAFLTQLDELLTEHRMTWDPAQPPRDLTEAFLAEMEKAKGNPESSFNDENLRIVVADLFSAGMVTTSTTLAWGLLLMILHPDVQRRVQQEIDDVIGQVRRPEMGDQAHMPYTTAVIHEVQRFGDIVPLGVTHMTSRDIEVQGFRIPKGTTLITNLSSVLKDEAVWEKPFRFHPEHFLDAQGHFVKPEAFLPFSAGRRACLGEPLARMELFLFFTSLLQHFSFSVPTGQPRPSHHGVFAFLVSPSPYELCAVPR
Chain of 5-hydroxytryptamine receptor 3A (P46098 whole entry, the tested form may be a part): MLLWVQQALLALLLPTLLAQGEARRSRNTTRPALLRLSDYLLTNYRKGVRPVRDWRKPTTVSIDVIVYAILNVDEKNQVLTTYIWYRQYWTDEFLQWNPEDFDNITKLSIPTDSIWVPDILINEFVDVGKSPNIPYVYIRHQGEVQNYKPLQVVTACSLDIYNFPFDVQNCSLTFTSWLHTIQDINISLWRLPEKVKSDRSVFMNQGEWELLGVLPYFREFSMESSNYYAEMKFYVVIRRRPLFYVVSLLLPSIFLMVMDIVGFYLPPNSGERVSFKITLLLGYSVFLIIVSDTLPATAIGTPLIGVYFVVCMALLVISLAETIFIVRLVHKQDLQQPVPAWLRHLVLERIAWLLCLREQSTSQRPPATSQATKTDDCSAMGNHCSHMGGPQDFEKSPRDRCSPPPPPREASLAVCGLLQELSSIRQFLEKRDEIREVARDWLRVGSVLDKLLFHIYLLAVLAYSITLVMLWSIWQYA
Chain of Histamine H3 receptor (Q9Y5N1 whole entry): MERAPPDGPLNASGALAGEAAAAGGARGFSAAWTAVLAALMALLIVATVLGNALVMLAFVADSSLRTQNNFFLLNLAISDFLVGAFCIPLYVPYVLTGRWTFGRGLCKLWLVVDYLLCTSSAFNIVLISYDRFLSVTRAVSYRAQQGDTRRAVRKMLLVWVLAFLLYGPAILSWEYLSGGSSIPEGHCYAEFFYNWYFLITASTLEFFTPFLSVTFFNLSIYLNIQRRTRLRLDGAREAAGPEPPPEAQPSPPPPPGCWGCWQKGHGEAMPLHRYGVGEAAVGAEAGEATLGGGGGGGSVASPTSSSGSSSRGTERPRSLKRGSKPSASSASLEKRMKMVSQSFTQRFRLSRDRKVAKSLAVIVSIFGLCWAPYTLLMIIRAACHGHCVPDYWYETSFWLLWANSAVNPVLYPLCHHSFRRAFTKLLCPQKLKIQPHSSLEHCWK

Cc1ccc(NC(=O)C[C@H](CCC(=O)O)c2noc([C@H]3C[C@@H](CC(C)(C)C)C3)c2C2CC2)c(Cl)c1
half-life [1]: 7.33 h | IC50 [2]: > 10 µM | Activity (Mus musculus): Active | IC50 [3]: > 10 µM | IC50 [4]: > 10 µM | IC50 (Cytochrome P450 3A5 [5]): > 10 µM | IC50 (Histamine H1 receptor): > 10 µM | Tmax [6]: 3 h | Activity [7]: Non-Toxic | IC50 [8]: > 10 µM | IC50 [9]: > 10 µM | Vd [10]: 0.19 L/kg | Selectivity ratio [11]: > 100 | Tmax [12]: 4 h | IC50 (Cytochrome P450 2A6): > 10 µM | Cmax [13]: 38100 ng/mL | IC50 (Cytochrome P450 3A4 [14]): > 10 µM | Vd [15]: 0.34 L/kg | Activity [16]: Non-Toxic | IC50 [17]: > 10 µM | Cmax [18]: 17500 ng/mL | Tmax [19]: 2.77 h | half-life [20]: 5.63 h | logD [21]: 5.1 | IC50 (Cytochrome P450 3A5 [22]): > 10 µM | IC50 (Histamine H3 receptor): > 10 µM | MRT [23]: 5.8 h | Activity [24]: Non-Toxic | Vd [25]: 0.36 L/kg | IC50 (Histamine H2 receptor): > 10 µM | Selectivity ratio [26]: > 100 | Selectivity ratio [27]: > 100 | Tmax [28]: 3.25 h | Selectivity ratio [29]: > 100 | Papp at 2 h, 25 µM [30]: 22.3 ×10⁻⁶ cm/s | half-life [31]: 3 h | IC50 (Cytochrome P450 3A4 [32]): > 10 µM | remaining at 1 h, 5 µM [33]: 73% | AUC(0-t) at 144 h [34]: 94300 ng·h/mL | IC50 (Cytochrome P450 2D6): > 10 µM | MRT [35]: 6.6 h | Selectivity ratio [36]: > 100 | bioavailability [37]: 98% | bioavailability [38]: 106% | IC50 (Acetylcholinesterase): > 10 µM | half-life [39]: 7.91 h | Activity [40]: Non-Toxic | Activity [41]: Non-Toxic | IC50 [42]: > 10 µM | Activity [43]: Non-Toxic
